Data taken from patent US10004701B2, “Methods and compositions for treating infection” (UNIVERSITY OF ROCHESTER, priority 2012, dated 2018).
Counter-ions that a name gives are not always drawn. Like-named read-outs stand apart in the source and are kept apart here.

Experiments:
Experiment in all cases: AK assay 384-well format, Prestwick library screening
E. coli = type: cell-based, Escherichia coli; settings: 50 μM final drug concentration; for fold induction at 50 µM: Escherichia coli, 3 h
K. pneumoniae = type: cell-based, Klebsiella pneumoniae; settings: 50 μM final drug concentration; for fold induction at 50 µM: Klebsiella pneumoniae, 3 h
P. aeruginosa = type: cell-based, Pseudomonas aeruginosa; settings: 50 μM final drug concentration; for fold induction at 50 µM: Pseudomonas aeruginosa, 3 h
[1] = tested on: A. baumannii strain 98-37-09; type: cell-based, Acinetobacter baumannii; settings: 50 μM final drug concentration; for fold induction at 50 µM: Acinetobacter baumannii, 983709, 3 h
E. cloacae = type: cell-based, Enterobacter cloacae; settings: 50 μM final drug concentration; for fold induction at 50 µM: Enterobacter cloacae, 3 h
E. faecium = type: cell-based, Enterococcus faecium; settings: 50 μM final drug concentration; for fold induction at 50 µM: Enterococcus faecium, 3 h
[2] = tested on: S. aureus strain USA300-0114; type: cell-based, Staphylococcus aureus; settings: 50 μM final drug concentration; for fold induction at 50 µM: Staphylococcus aureus, USA300, 3 h
[3] = cutoff for positive-scoring molecules 3-fold increase, read-out: AK-based Prestwick Library Screening Results, E. coli (fold increase in extracellular AK activity)
[4] = cutoff for positive-scoring molecules 3-fold increase, read-out: AK-based Prestwick Library Screening Results, K. pneumoniae (fold increase in extracellular AK activity)
[5] = cutoff for positive-scoring molecules 3-fold increase, read-out: AK-based Prestwick Library Screening Results, P. aeruginosa (fold increase in extracellular AK activity)
[6] = cutoff for positive-scoring molecules 3-fold increase, read-out: AK-based Prestwick Library Screening Results, A. baumannii (fold increase in extracellular AK activity)
[7] = cutoff for positive-scoring molecules 3-fold increase, read-out: AK-based Prestwick Library Screening Results, E. cloacae (fold increase in extracellular AK activity)
[8] = cutoff for positive-scoring molecules 3-fold increase, read-out: AK-based Prestwick Library Screening Results, E. faecium (fold increase in extracellular AK activity)
[9] = cutoff for positive-scoring molecules 3-fold increase, read-out: AK-based Prestwick Library Screening Results, S. aureus (fold increase in extracellular AK activity)
[10] = planktonic, cutoff for positive 3-fold increase
[11] = planktonic, cutoff for positive-scoring molecules 3-fold increase, read-out: AK-based Prestwick Library Screening Results, E. coli (fold increase in extracellular AK activity)
[12] = planktonic, cutoff for positive-scoring molecules 3-fold increase, read-out: AK-based Prestwick Library Screening Results, K. pneumoniae (fold increase in extracellular AK activity)
[13] = planktonic, cutoff for positive-scoring molecules 3-fold increase, read-out: AK-based Prestwick Library Screening Results, P. aeruginosa (fold increase in extracellular AK activity)
[14] = planktonic, cutoff for positive-scoring molecules 3-fold increase, read-out: AK-based Prestwick Library Screening Results, A. baumannii (fold increase in extracellular AK activity)
[15] = planktonic, cutoff for positive-scoring molecules 3-fold increase, read-out: AK-based Prestwick Library Screening Results, E. cloacae (fold increase in extracellular AK activity)
[16] = planktonic, cutoff for positive-scoring molecules 3-fold increase, read-out: AK-based Prestwick Library Screening Results, E. faecium (fold increase in extracellular AK activity)
[17] = planktonic, cutoff for positive-scoring molecules 3-fold increase, read-out: AK-based Prestwick Library Screening Results, S. aureus (fold increase in extracellular AK activity)

In the case of `Clc1ccc(C(OCCN2CCCCC2)c2ccccc2)cc1` (centres unmarked) [Cloperastine hydrochloride], the fold induction at 50 µM (E. coli; [3]) is reported as 1.2, the fold induction at 50 µM (K. pneumoniae; [4]) is reported as 1.2 and the fold induction at 50 µM (P. aeruginosa; [5]) is reported as 1.2. The fold induction at 50 µM [1, 6] was 1.4, the fold induction at 50 µM (E. cloacae; [7]) was 2 and the fold induction at 50 µM (E. faecium; [8]) was 1.1. For the same compound, the fold induction at 50 µM [2, 9] was 1.3.
For `CN1CCN(C(c2ccccc2)c2ccc(Cl)cc2)CC1` (centres unmarked) [Chlorcyclizine hydrochloride], the fold induction at 50 µM (E. coli; [3]) was 1.3, the fold induction at 50 µM (K. pneumoniae; [4]) was 1.1 and the fold induction at 50 µM (P. aeruginosa; [5]) was 1.1. It also gave a fold induction at 50 µM [1, 6] of 1.5, a fold induction at 50 µM (E. cloacae; [7]) of 1.6 and a fold induction at 50 µM (E. faecium; [8]) of 1. The fold induction at 50 µM [2, 9] was 1.2.
In the case of `NC[C@H]1O[C@H](O[C@H]2[C@H](O)[C@@H](O[C@H]3O[C@H](CO)[C@@H](O)[C@H](N)[C@H]3O)[C@H](N)C[C@@H]2N)[C@H](O)[C@@H](O)[C@@H]1O.O=S(=O)(O)O` [Kanamycin A sulfate], the “AK-based Prestwick Library Screening Results, E. coli (fold increase in extracellular AK activity)” value (E. coli; [10]) is reported as 1.2, the “AK-based Prestwick Library Screening Results, K. pneumoniae (fold increase in extracellular AK activity)” value (K. pneumoniae; [10]) is reported as 1.0 and the “AK-based Prestwick Library Screening Results, P. aeruginosa (fold increase in extracellular AK activity)” value (P. aeruginosa; [10]) is reported as 1.0. The “AK-based Prestwick Library Screening Results, A. baumannii (fold increase in extracellular AK activity)” value [1, 10] was 1.1, the “AK-based Prestwick Library Screening Results, E. cloacae (fold increase in extracellular AK activity)” value (E. cloacae; [10]) was 1.9 and the “AK-based Prestwick Library Screening Results, E. faecium (fold increase in extracellular AK activity)” value (E. faecium; [10]) was 0.9. For the same compound, the “AK-based Prestwick Library Screening Results, S. aureus (fold increase in extracellular AK activity)” value [2, 10] was 2.5.
For Viomycin sulfate, the “AK-based Prestwick library screening result, E. coli (fold increase in extracellular AK activity)” value (E. coli; planktonic E. coli, […]) was 1.0, the “AK-based Prestwick library screening result, K. pneumoniae (fold increase in extracellular AK activity)” value (K. pneumoniae; planktonic K. pneumoniae, […]) was 0.9 and the “AK-based Prestwick library screening result, P. aeruginosa (fold increase in extracellular AK activity)” value (P. aeruginosa; planktonic P. aeruginosa, […]) was 0.9. For the same compound, the “AK-based Prestwick library screening result, A. baumannii (fold increase in extracellular AK activity)” value ([1]; planktonic A. baumannii, […]) was 1.1, the “AK-based Prestwick library screening result, E. cloacae (fold increase in extracellular AK activity)” value (E. cloacae; planktonic E. cloacae, […]) was 1.6 and the “AK-based Prestwick library screening result, E. faecium (fold increase in extracellular AK activity)” value (E. faecium; planktonic E. faecium, […]) was 1.0. For the same compound, the “AK-based Prestwick library screening result, S. aureus (fold increase in extracellular AK activity)” value ([2]; planktonic S. aureus, […]) was 1.3.
For `O=c1c2ccccc2[se]n1-c1ccccc1` [Ebselen], the fold induction at 50 µM (E. coli; [11]) was 0.6, the fold induction at 50 µM (K. pneumoniae; [12]) was 0.6 and the fold induction at 50 µM (P. aeruginosa; [13]) was 0.6. The fold induction at 50 µM [1, 14] was 0.7, the fold induction at 50 µM (E. cloacae; [15]) was 0.7 and the fold induction at 50 µM (E. faecium; [16]) was 0.9. It also gave a fold induction at 50 µM [2, 17] of 0.5.
With `CCCCC(CC)CN1CN(CC(CC)CCCC)CC(C)(N)C1` (centres unmarked) [Hexetidine] the fold induction at 50 µM (E. coli; planktonic, cutoff for positive 3-fold increase, read-out: AK-based Prestwick Library Screening Results, E. coli (fold increase in extracellular AK activity)) was 1.5, the fold induction at 50 µM (K. pneumoniae; planktonic, cutoff for positive 3-fold increase, read-out: AK-based Prestwick Library Screening Results, K. pneumoniae (fold increase in extracellular AK activity)) was 1.4 and the fold induction at 50 µM (P. aeruginosa; planktonic, cutoff for positive 3-fold increase, read-out: AK-based Prestwick Library Screening Results, P. aeruginosa (fold increase in extracellular AK activity)) was 1.1. It also gave a fold induction at 50 µM ([1]; planktonic, cutoff for positive 3-fold increase, read-out: AK-based Prestwick Library Screening Results, A. baumannii (fold increase in extracellular AK activity)) of 3, a fold induction at 50 µM (E. cloacae; planktonic, cutoff for positive 3-fold increase, read-out: AK-based Prestwick Library Screening Results, E. cloacae (fold increase in extracellular AK activity)) of 1.6 and a fold induction at 50 µM (E. faecium; planktonic, cutoff for positive 3-fold increase, read-out: AK-based Prestwick Library Screening Results, E. faecium (fold increase in extracellular AK activity)) of 1.1. The fold induction at 50 µM ([2]; planktonic, cutoff for positive 3-fold increase, read-out: AK-based Prestwick Library Screening Results, S. aureus (fold increase in extracellular AK activity)) was 1.2.
Work on `C[C@H](CS)C(=O)N1CCC[C@H]1C(=O)O` [Captopril] yielded a fold induction at 50 µM (E. coli; 384-well format, cutoff for positive-scoring molecules 3-fold increase, read-out: AK-based Prestwick Library Screening Results, E. coli (increase in extracellular AK activity)) of 0.7, a fold induction at 50 µM (K. pneumoniae; 384-well format, cutoff for positive-scoring molecules 3-fold increase, read-out: AK-based Prestwick Library Screening Results, K. pneumoniae (increase in extracellular AK activity)) of 0.6 and a fold induction at 50 µM (P. aeruginosa; 384-well format, cutoff for positive-scoring molecules 3-fold increase, read-out: AK-based Prestwick Library Screening Results, P. aeruginosa (increase in extracellular AK activity)) of 0.6. It also gave a fold induction at 50 µM ([1]; 384-well format, cutoff for positive-scoring molecules 3-fold increase, read-out: AK-based Prestwick Library Screening Results, A. baumannii (increase in extracellular AK activity)) of 0.8, a fold induction at 50 µM (E. cloacae; 384-well format, cutoff for positive-scoring molecules 3-fold increase, read-out: AK-based Prestwick Library Screening Results, E. cloacae (increase in extracellular AK activity)) of 0.8 and a fold induction at 50 µM (E. faecium; 384-well format, cutoff for positive-scoring molecules 3-fold increase, read-out: AK-based Prestwick Library Screening Results, E. faecium (increase in extracellular AK activity)) of 1. It also gave a fold induction at 50 µM ([2]; 384-well format, cutoff for positive-scoring molecules 3-fold increase, read-out: AK-based Prestwick Library Screening Results, S. aureus (increase in extracellular AK activity)) of 0.7.
For `COc1ccc2cc(CCC(C)=O)ccc2c1` [Nabumetone], the fold induction at 50 µM (E. coli; [11]) was 0.5, the fold induction at 50 µM (K. pneumoniae; [12]) was 0.5 and the fold induction at 50 µM (P. aeruginosa; [13]) was 0.6. For the same compound, the fold induction at 50 µM [1, 14] was 0.4, the fold induction at 50 µM (E. cloacae; [15]) was 1 and the fold induction at 50 µM (E. faecium; [16]) was 0.4. It also gave a fold induction at 50 µM [2, 17] of 0.4.
`CCCCOc1cc(C(=O)OCCN(CC)CC)ccc1N` [Benoxinate hydrochloride] showed a fold induction at 50 µM (E. coli; planktonic E. coli, 384-well, cutoff for positive-scoring molecules 3-fold increase, read-out: AK-based Prestwick Library Screening Results: E. coli (increase in extracellular AK activity)) of 1.3, a fold induction at 50 µM (K. pneumoniae; planktonic K. pneumoniae, 384-well, cutoff for positive-scoring molecules 3-fold increase, read-out: AK-based Prestwick Library Screening Results: K. pneumoniae (increase in extracellular AK activity)) of 1 and a fold induction at 50 µM (P. aeruginosa; planktonic P. aeruginosa, 384-well, cutoff for positive-scoring molecules 3-fold increase, read-out: AK-based Prestwick Library Screening Results: P. aeruginosa (increase in extracellular AK activity)) of 0.9. It also gave a fold induction at 50 µM ([1]; planktonic A. baumannii, 384-well, cutoff for positive-scoring molecules 3-fold increase, read-out: AK-based Prestwick Library Screening Results: A. baumannii (increase in extracellular AK activity)) of 1.1, a fold induction at 50 µM (E. cloacae; planktonic E. cloacae, 384-well, cutoff for positive-scoring molecules 3-fold increase, read-out: AK-based Prestwick Library Screening Results: E. cloacae (increase in extracellular AK activity)) of 1.4 and a fold induction at 50 µM (E. faecium; planktonic E. faecium, 384-well, cutoff for positive-scoring molecules 3-fold increase, read-out: AK-based Prestwick Library Screening Results: E. faecium (increase in extracellular AK activity)) of 0.9. For the same compound, the fold induction at 50 µM ([2]; planktonic S. aureus, 384-well, cutoff for positive-scoring molecules 3-fold increase, read-out: AK-based Prestwick Library Screening Results: S. aureus (increase in extracellular AK activity)) was 1.
With `CN1CCc2c(c3ccccc3n2Cc2ccccc2)C1.O=S(=O)(O)c1cccc2c(S(=O)(=O)O)cccc12` [Mebhydroline 1,5-naphtalenedisulfonate] the “AK-based Prestwick Library Screening Results, E. coli (fold increase in extracellular AK activity)” value (E. coli; [10]) was 1.1, the “AK-based Prestwick Library Screening Results, K. pneumoniae (fold increase in extracellular AK activity)” value (K. pneumoniae; [10]) was 0.8 and the “AK-based Prestwick Library Screening Results, P. aeruginosa (fold increase in extracellular AK activity)” value (P. aeruginosa; [10]) was 1.1. The “AK-based Prestwick Library Screening Results, A. baumannii (fold increase in extracellular AK activity)” value [1, 10] was 0.9, the “AK-based Prestwick Library Screening Results, E. cloacae (fold increase in extracellular AK activity)” value (E. cloacae; [10]) was 1.5 and the “AK-based Prestwick Library Screening Results, E. faecium (fold increase in extracellular AK activity)” value (E. faecium; [10]) was 1.0. The “AK-based Prestwick Library Screening Results, S. aureus (fold increase in extracellular AK activity)” value [2, 10] was 0.9.
With `Nc1ncnc2c1ncn2[C@@H]1O[C@H](CO)[C@@H](O)[C@@H]1O` [Vidarabine] the fold induction at 50 µM (E. coli; [11]) was 1.1, the fold induction at 50 µM (K. pneumoniae; [12]) was 0.7 and the fold induction at 50 µM (P. aeruginosa; [13]) was 1. For the same compound, the fold induction at 50 µM [1, 14] was 1, the fold induction at 50 µM (E. cloacae; [15]) was 1.8 and the fold induction at 50 µM (E. faecium; [16]) was 1.1. It also gave a fold induction at 50 µM [2, 17] of 1.5.
